Laboratory results reported in patent publication US8211909B2, “Treatment of antibiotic-resistant bacteria infection” (TaiGen Biotechnology Co., Ltd., priority 2008, dated 2012).
Values after ≈ are worked out from the molar mass of the structure shown. Where two headings read alike, the source gives them in different places.

Tests used:
[1] = test system: Methicillin-resistant Staphylococcus aureus (MRSA) isolates; assay: MIC by broth microdilution (CLSI) against CAN-ICU MRSA isolates; format: cell-based; conditions: Staphylococcus aureus; for MIC50: read-out: MIC50; for MIC90: read-out: MIC90
Text: MRSA isolates (n=193) were obtained as part of the Canadian National Intensive Care Unit (CAN-ICU) Study. 19 medical centers from all regions of Canada with active ICUs participated in the CAN-ICU study included. They were requested to only obtain “clinically significant” specimens from patients with a presumed infectious disease. Surveillance swabs, eye, ear, nose and throat swabs were excluded. Anaerobic organisms and fungal organisms were also excluded.
From September 2005-June 2006 (inclusive), each center collected a maximum of 300 consecutive pathogens isolated from blood, urine, tissue/wound, and respiratory specimens (one pathogen per cultured site per patient) of ICU patients. These isolates were shipped to the reference laboratory (Health Sciences Centre, Winnipeg, Canada) on Amies charcoal swabs, subcultured in appropriate media, and stocked in skim milk at −80° C.
All isolates underwent mecA PCR, as well as molecular characterization (including PVL analysis and fingerprinting), as previously described, to assess whether they were community-associated or healthcare-associated (Christianson et al., J Clin Microbiol. 2007, 45 (6): 1904-11; Mulvey et al., J Clin. Microbiol. 2001, 39(10): 3481-5; Mulvey et al., Emerg Infect Dis. 2005,11(6): 844-50; Oliveira et al., Antimicrob Agents Chemother. 2002, 46(7): 2155-61). The isolates were also subtyped using pulsed-field gel electrophoresis (PFGE) following the Canadian standardized protocol as previously described (Mulvey et al., J Clin Microbiol. 2001, 39(10): 3481-5). Their PFGE fingerprints thus obtained were analyzed with BioNumerics v3.5 (Applied Maths St. Marten-Latem, Belgium) using a position tolerance of 1.0 and an optimization of 1.0. Strain relatedness was determined as previously described (Tenover et al., 1995). The fingerprints of the isolates were compared to the national MRSA fingerprint database and were grouped into one of 10 Canadian epidemic MRSA (CMRSA-1, CMRSA-2, etc) as previously described (Mulvey et al., Emerg Infect Dis. 2005,11(6):844-50).
Compound 1 and other antibiotics were tested for their inhibitory activity against the MRSA isolates using the broth microdilution guidelines as stipulated by the Clinical and Laboratory Standards Institute.

H. pylori isolates = assay: MIC by agar dilution against 200 H. pylori isolates (Taiwan); format: cell-based, Helicobacter pylori; conditions: for share of isolates resistant: 200 H. pylori isolates, resistance: amoxicillin MICs≧0.5, clarithromycin ≧1, metronidazole ≧8, ciprofloxacin ≧1, levofloxacin ≧1 μg/mL; for MIC50 / MIC90: Helicobacter pylori, 200 isolates of H. pylori
Experimental: MICs were determined using the agar dilution methods recommended by the Clinical and Laboratory Standards Institute (CLSI-M100-S18).

[2] = test system: methicillin-resistant Staphylococcus aureus; assay: MIC by broth microdilution, Taiwan clinical isolates (Compound 1′); format: cell-based; conditions: for MIC50 / MIC90: Staphylococcus aureus, MRSA
Experimental: (§1) The Staphylococcus aureus and Streptococcus pneumoniae isolates were obtained by 10 medical centers in all regions of Taiwan. MICs were determined using the broth microdilution method.

[3] = test system: methicillin-resistant Streptococcus pneumoniae; assay: as above; format: cell-based; conditions: for MIC50 / MIC90: Streptococcus pneumoniae
Experimental: as §1

[4] = test system: Staphylococcus aureus strains (MRSA, hVISA, VISA, VRSA, quinolone-resistant MRSA); assay: MIC by agar dilution against Staphylococcal strains (MRSA, hVISA, VISA, VRSA, quinolone-resistant MRSA); format: cell-based; conditions: Staphylococcus aureus
Experimental: Compound 1 was tested for its inhibitory effect against 26 Methicillin-resistant Staphylococcus aureus (MRSA) strains, 2 hetero-Vancomycin intermediate Staphylococcus aureus (hVISA) strains, 24 Vancomycin-intermediate Staphylococcus aureus (VISA) strains, 5 Vancomycin-resistant Staphylococcus aureus (VRSA) strains, and 31 quinolone-resistant Vancomycin-susceptibale MRSA strains with defined mutations in QRDR. These mutations were determined by sequencing analysis of the QRDR (gyrA, gyrB, grlA, and grlB). Efflux testing was performed by the reserpine method (Brenwald, et al., Antimicrob. Agents Chemother. 1998, 42: 2032-2035).

S. pneumoniae = assay: CANWARD 2007 gram-positive cocci, CLSI broth microdilution; format: cell-based, Streptococcus pneumoniae; set-up: MIC50 / MIC90: unit not given here
Experimental: (§2) From January-December 2007, 12 hospitals across Canada submitted isolates from patients attending hospital clinics, emergency rooms, medical and surgical wards, and intensive care units. 7881 isolates (CANWARD 2007) were collected including 3473 gram-positive cocci. Susceptibility testing for Compound 1 and Levofloxacin was performed using the Clinical and Laboratory Standards Institute broth microdilution.

[5] = test system: S. aureus (MSSA, CA-MRSA, HA-MRSA, VISA, VRSA); assay: CANWARD 2007 / NARSA gram-positive cocci, CLSI broth microdilution; format: cell-based, Staphylococcus aureus; set-up: MIC50 / MIC90: unit not given here
Experimental: as §2

[6] = test system: Staphylococcus epidermidis (MSSE, MRSE); assay: CANWARD 2007 gram-positive cocci, CLSI broth microdilution; format: cell-based; set-up: MIC50 / MIC90: unit not given beside the values
Experimental: as §2

E. faecalis = assay: as above; format: cell-based; set-up: unit not given beside the values; conditions: E. faecalis (81)
Experimental: as §2

[7] = MRSA (n = 193), read-out: MIC Range Max
[8] = MRSA (n = 193), read-out: MIC Range Min
[9] = MRSA-CIP (R): MRSA-ciprofloxacin resistant strain
[10] = MRSA-CIP (S): MRSA-ciprofloxacin sensitive strain
[11] = MRSP-Levo (R): Levofloxacin resistant strain
[12] = MRSP-Levo (S): Levofloxacin sensitive strain
[13] = MRSA / USA100, USA 100/800 (HA-MRSA)
[14] = MRSA / USA200, USA 200 (HA-MRSA)
[15] = MRSA / USA300, USA 300 (CA-MRSA)
[16] = MRSA / USA400, USA 400 (CA-MRSA)
[17] = MRSA / USA600, USA 600 (HA-MRSA)
[18] = hVISA(2) + VISA (24) + VRSA (5)

With `CC[C@H]1OC(=O)[C@H](C)[C@@H](O[C@H]2C[C@@](C)(OC)[C@@H](O)[C@H](C)O2)[C@H](C)[C@@H](O[C@@H]2O[C@H](C)C[C@H](N(C)C)[C@H]2O)[C@](C)(OC)C[C@@H](C)C(=O)[C@H](C)[C@@H](O)[C@]1(C)O` [Clarithromycin] as the compound, how does the MIC50 ([1]; MRSA (n = 193)) read?
The MIC50 was over 32 µg/mL.

And the MIC90 ([1]; MRSA (n = 193))?
Its MIC90 is over 32 µg/mL.

And the MIC [1, 7]?
Its MIC is over 32 µg/mL.

And the MIC [1, 8]?
Its MIC is 0.25 µg/mL (≈ 0.334 µM).

And the “share of isolates resistant” value (H. pylori isolates)?
The value was 6%.

Which MIC50 [2, 9] does the source give for `COc1c(N2C[C@H](C)C[C@H](N)C2)ccc2c(=O)c(C(=O)O)cn(C3CC3)c12` [Compound 1′, (3S,5R)-7-[3-amino-5-methyl-piperidinyl]-1-cyclopropyl-1,4-dihydro-8-methoxy-4-oxo-3-quinolinecarboxylic acid] here?
The MIC50 was 1 µg/mL (≈ 2.69 µM).

And the MIC90 [2, 9]?
Its MIC90 is 1 µg/mL (≈ 2.69 µM).

What about the MIC50 [2, 10] of the same compound?
Its MIC50 is 0.03 µg/mL (≈ 0.0808 µM).

And the MIC90 [2, 10]?
Its MIC90 is 0.06 µg/mL (≈ 0.162 µM).

And the “inhibition (in words)” value ([2]; methicillin-resistant Staphylococcus aureus)?
Its value is “effective”.

What about the MIC50 [3, 11] of the same compound?
Its MIC50 is 0.25 µg/mL (≈ 0.673 µM).

And the MIC90 [3, 11]?
The MIC90 was 1 µg/mL (≈ 2.69 µM).

And the MIC50 [3, 12]?
The MIC50 was 0.03 µg/mL (≈ 0.0808 µM).

And the MIC90 [3, 12]?
Its MIC90 is 0.06 µg/mL (≈ 0.162 µM).

What about the “inhibition (in words)” value ([3]; methicillin-resistant Streptococcus pneumoniae) of the same compound?
The value was “effective”.

How did the MIC50 (H. pylori isolates) turn out when `CO/N=C1\CN(c2nc3c(cc2F)c(=O)c(C(=O)O)cn3C2CC2)CC1CN` (centres unmarked) [Gemifloxacin] was run?
The MIC50 was 60 µg/mL (≈ 154 µM).

What about the MIC90 (H. pylori isolates) of the same compound?
The MIC90 was 120 µg/mL (≈ 308 µM).

What does the source list for `C[C@H]1COc2c(N3CCN(C)CC3)c(F)cc3c(=O)c(C(=O)O)cn1c23` [Levofloxacin]?
MIC50 [1, 13]: > 32 µg/mL; MIC90 [1, 13]: > 32 µg/mL; MIC50 [1, 14]: 32 µg/mL (≈ 88.6 µM); MIC90 [1, 14]: > 32 µg/mL; MIC50 [1, 15]: 8 µg/mL (≈ 22.1 µM); MIC90 [1, 15]: 8 µg/mL (≈ 22.1 µM); MIC50 [1, 16]: 0.25 µg/mL (≈ 0.692 µM); MIC90 [1, 16]: 0.25 µg/mL (≈ 0.692 µM); MIC50 [1, 17]: 32 µg/mL (≈ 88.6 µM); MIC90 [1, 17]: > 32 µg/mL; MIC50 ([1]; MRSA (n = 193)): > 32 µg/mL; MIC90 ([1]; MRSA (n = 193)): > 32 µg/mL; MIC [1, 7]: > 32 µg/mL; MIC [1, 8]: 0.25 µg/mL (≈ 0.692 µM); MIC50 ([4]; MRSA (26)): 0.25 µg/mL (≈ 0.692 µM); MIC90 ([4]; MRSA (26)): 0.5 µg/mL (≈ 1.38 µM); MIC50 ([4]; Quinolone-resistant MRSA (31)): 16 µg/mL (≈ 44.3 µM); MIC90 ([4]; Quinolone-resistant MRSA (31)): 32 µg/mL (≈ 88.6 µM); MIC50 [4, 18]: 16 µg/mL; MIC90 [4, 18]: 32 µg/mL; MIC ([4]; read-out: MIC Range, MRSA (26)): 0.25 to 1 µg/mL (≈ 0.692 to 2.77 µM); MIC50 (S. pneumoniae; SPN CipR (29)): 2; MIC90 (S. pneumoniae; SPN CipR (29)): 16; MIC50 (S. pneumoniae; SPN PenI (103)): 0.5; MIC90 (S. pneumoniae; SPN PenI (103)): 1; MIC50 (S. pneumoniae; SPN PenR (34)): 0.5; MIC90 (S. pneumoniae; SPN PenR (34)): 2; MIC50 (S. pneumoniae; SPN PenS (519)): 0.5; MIC90 (S. pneumoniae; SPN PenS (519)): 1; MIC50 (S. pneumoniae; SPN-All (656)): 0.5; MIC90 (S. pneumoniae; SPN-All (656)): 1; MIC50 ([5]; CA-MRSA (23)): 4; MIC90 ([5]; CA-MRSA (23)): 8; MIC50 ([5]; HA-MRSA (91)): >32/>32; MIC90 ([5]; HA-MRSA (91)): >32/>32; MIC50 ([5]; MSSA (372)): 0.25; MIC90 ([5]; MSSA (372)): 4; MIC50 ([5]; VISA (12), NARSA isolates): 32/>32; MIC90 ([5]; VISA (12), NARSA isolates): 32/>32; median MIC (single value under head MIC50/MIC90) ([5]; VRSA (7), NARSA isolates): 32; MIC50 ([6]; MRSE (9)): >32/>32; MIC90 ([6]; MRSE (9)): >32/>32; MIC50 ([6]; MSSE (32)): 4; MIC90 ([6]; MSSE (32)): > 32; MIC50 (E. faecalis): 2; MIC90 (E. faecalis): > 32; share of isolates resistant (H. pylori isolates): 2%; MIC50 (H. pylori isolates): 250 µg/mL (≈ 692 µM); MIC90 (H. pylori isolates): 500 µg/mL (≈ 1380 µM); MIC50/MIC90 (single value printed) ([3]; MRSP-Levo (R)): >128 µg/mL; MIC50/MIC90 (single value printed) ([3]; MRSP-Levo (S)): 16 µg/mL (≈ 44.3 µM)
